Reference: US12697330B2, “Therapeutic methods using vadadustat” (Akebia Therapeutics, Inc., priority 2021, dated 2026)

Columns and labels:
Assay type in all cases: in vivo, human
[1] = system: healthy adults; experiment: Drug interaction study with co-administration of vadadustat in healthy adults; conditions: healthy adults; extent of increase
From the text: Sulfasalazine. Other Breast Cancer Resistance Protein Substrates. and Probenecid. Exposures to sulfasalazine (moderately) and mesalamine (mildly) were increased with co-administration of vadadustat based on a study in healthy adults. In subjects taking vadadustat, sulfasalazine and other clinically relevant substrates of the breast cancer resistance protein (BCRP) transporter (e.g., sulfasalazine, methotrexate, mitoxantrone, imatinib, irinotecan, lapatinib, topotecan, tenofovir, glecaprevir, pibrentasvir, or sofosbuvir), caution should be taken during the study. Probenecid, an inhibitor of UDP-glucuronosyltransferase (UGT) and the organic anion transporter (OAT)1/3 transporters, increased vadadustat area under the curve and is prohibited during the study.

[2] = Phase 2 study, Main Study: pharmacokinetics (vadadustat and vadadustat-O-glucuronide concentration); conditions: Week 1, Week 1+1 day, and Week 11
Procedure: PK/PD Endpoints. An exposure-response analysis of vadadustat and PD measures were conducted as deemed appropriate. The PK parameters included (but were not limited to) the following: area under concentration-time curve from dosing to last measurable concentration (AUClast), area under concentration-time curve from dosing to infinity (AUCinf), Cmax, apparent total body clearance (CL/F), apparent volume of distribution (Vd/F), and terminal half-life (t1/2). The PD parameters included (but were not limited to) the following: EPO, reticulocytes, iron, ferritin, TIBC, and hepcidin.
PK population: included all randomized subjects who received study drug (vadadustat or epoetin alfa) and had enough drug concentrations to estimate AUC and Cmax. Analysis of this population was based on the dose amount taken at the date of PK sampling for the vadadustat group.

[3] = Phase 1b study: pharmacokinetics of vadadustat and its metabolites in plasma of hemodialysis subjects with anemia associated with CKD
Procedure: The primary objective of the study was to assess the pharmacokinetics (PK) of vadadustat 600, 750, and 900 mg daily, and IV ESA (darbepoetin alfa or epoetin alfa) in hemodialysis subjects with anemia associated with CKD. Additional objectives included to evaluate the pharmacodynamics (PD) of vadadustat 600, 750, and 900 mg daily, and IV ESA (darbepoetin alfa or epoetin alfa) in hemodialysis subjects with anemia associated with CKD and to assess the safety and tolerability of vadadustat 600, 750, and 900 mg daily and IV ESA (darbepoetin alfa or epoetin alfa) in hemodialysis subjects with anemia associated with CKD.
Study Design. This was a Phase 1b, randomized, open-label study to evaluate the PK, PD, safety, and tolerability of vadadustat 600, 750, or 900 mg daily, or ESA (darbepoetin alfa or epoetin alfa) in hemodialysis subjects with anemia associated with CKD. The study included a 28-day Screening and Randomization period, a 10-day Treatment Period, and a 30-day Safety Follow up Period after the last dose of study drug (vadadustat or ESA). For subjects randomized to vadadustat, study duration also included an ESA washout period of a minimum of 5 days for epoetin alfa or 9 days for darbepoetin alfa or 9-day ESA Washout period prior to dosing on Day 1.
A total of 46 subjects were enrolled in the study. Written informed consent were obtained before any screening procedures were performed. Subjects were screened within 28 days prior to randomization. Eligible subjects were randomized in a 2:2:2:1 ratio to 1 of 4 treatment groups (600, 750, or 900 mg vadadustat QD, or ESA. Randomized subjects began their 10-day Treatment Period within 36 days of initiating screening.
Eligible subjects were randomly assigned in a 2:2:2:1 ratio to 1 of 4 treatment groups: Group 1—vadadustat 600 mg once daily (QD); Group 2—vadadustat 750 mg QD; Group 3—vadadustat 900 QD; and Group 4—IV ESA. Randomization was stratified by the mean weekly ESA dose calculated over a period of 8 weeks prior to the randomization visit. For darbepoetin, the groups were divided into low dose darbepoetin alfa group (<0.5 μg/kg/week) and high dose darbepoetin alfa group (>0.5 to <1.5 μg/kg/week). For epoetin, the groups were divided into low dose epoetin alfa group (≤90 U/kg/week) and high dose epoetin alfa group (>90 to <300 U/kg/week).
Subjects began dosing on Day 1 and took vadadustat at approximately the same time each day for a total of 10 days. On Day 1 and Day 8, subjects took vadadustat after all predose procedures are completed and within 30 minutes prior to the start of dialysis so that the 1-hour post dose blood sample for PK and PD was collected during dialysis. Vadadustat could be taken with or without food. Subjects were instructed to make every effort to take the drug consistently, either with or without food. Subjects were instructed to swallow the tablets whole with water.
PK and EPO Sample. For each vadadustat treatment group, blood samples for vadadustat PK (and its metabolites) and EPO were collected at the following time points: Day 1: predose, and at 1, 2, 3, 4, 5, 8, and 11 hours post dose; Day 2: 24 hours (−2 hours) post Day 1 dose; Day 6: blood sample for EPO analysis only was collected predose on Day 6; Day 8: predose, and at 1, 2, 3, 4, 5, 8, 11 hours post dose, Day 10 or EOT: predose. For the ESA treatment group, blood samples for analysis of EPO were collected at the following time points: Day 1: predose, and at 0.25, 1, 2, 3, 4, 5, 8, and 11 hours post dose; Day 2: 24 hours (−2 hours) post Day 1 dose.
Primary Endpoints. […]

Compound: Nc1ccc(O)c(C(=O)O)c1 [mesalamine]
- Exposures increased with co-administration of vadadustat [1]: mildly

Compound: O=C(O)c1cc(/N=N/c2ccc(S(=O)(=O)Nc3ccccn3)cc2)ccc1O [sulfasalazine]
- Exposures increased with co-administration of vadadustat [1]: moderately

Compound: O=C(O)CNC(=O)c1ncc(-c2cccc(Cl)c2)cc1O[C@@H]1O[C@H](C(=O)O)[C@@H](O)[C@H](O)[C@H]1O [vadadustat-O-glucuronide]
- mean concentration versus time profiles, dose dependency [2]: concentrations increased with dose levels
- metabolite exposure versus dose ([3]; Day 8): increased in a dose-dependent manner
- accumulation versus dose ([3]; most pronounced in the 900 mg vadadustat treatment group): dose-dependent increase in accumulation
